According to ChEMBL document CHEMBL5260810, “Inhibition of bromodomain-containing protein 9 for the prevention of epigenetically-defined drug resistance” (Bioorg Med Chem Lett, 2017):

Assays:
NCI-H1703 = test: Cytotoxicity against human NCI-H1703 cells measured after 8 days; type: functional, cell-based; conditions: NCI-H1703, 192 h
CA46 = test: Cytotoxicity against human CA46 cells measured after 8 days; type: functional, cell-based; conditions: CA46, 192 h
[1] = Cytotoxicity against human KPL-4 cells measured after 8 days; type: functional, cell-based; conditions: KPL4, 192 h
[2] = Cytotoxicity against human NCI-H2595 cells measured after 8 days; type: functional, cell-based; conditions: NCI-H2595, 192 h
NCI-H2009 = test: Cytotoxicity against human NCI-H2009 cells measured after 8 days; type: functional, cell-based; conditions: NCI-H2009, 192 h
SU-DHL-1 = test: Cytotoxicity against human SU-DHL-1 cells measured after 8 days; type: functional, cell-based; conditions: SU-DHL-1, 192 h
[3] = Cytotoxicity against human HCA7 cells measured after 8 days; type: functional, cell-based; conditions: HCA-7, 192 h
LNCaP = test: Cytotoxicity against human LNCaP clone FGC cells measured after 8 days; type: functional, cell-based; conditions: 192 h
[4] = molecular target: T1, 5-hydroxytryptamine receptor 1A (Homo sapiens) (UniProt P08908); test: Displacement of [3H]8-OH-DPAT from recombinant human 5-HT1A receptor at 10 uM after 60 mins by scintillation counting analysis relative to control
T1 sequence (whole entry): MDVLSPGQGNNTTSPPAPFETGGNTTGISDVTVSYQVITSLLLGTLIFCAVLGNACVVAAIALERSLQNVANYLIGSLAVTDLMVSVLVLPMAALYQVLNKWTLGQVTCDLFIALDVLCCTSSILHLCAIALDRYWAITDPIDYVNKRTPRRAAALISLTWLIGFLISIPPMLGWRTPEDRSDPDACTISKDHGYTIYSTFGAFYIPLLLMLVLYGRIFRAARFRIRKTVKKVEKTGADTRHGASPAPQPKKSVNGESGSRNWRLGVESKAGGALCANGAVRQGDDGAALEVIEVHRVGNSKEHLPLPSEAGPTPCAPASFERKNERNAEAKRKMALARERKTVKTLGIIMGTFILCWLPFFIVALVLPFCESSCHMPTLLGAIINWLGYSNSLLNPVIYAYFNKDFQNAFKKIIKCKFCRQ

MV4-11 = test: Cytotoxicity against human MV4-11 cells measured after 8 days; type: functional, cell-based; conditions: MV4-11, 192 h
NCI-H226 = test: Cytotoxicity against human NCI-H226 cells measured after 8 days; type: functional, cell-based; conditions: NCI-H226, 192 h
Protein polybromo-1 = Protein polybromo-1 (Homo sapiens, UniProt Q86U86); test: Binding affinity to human partial length PBRM1 bromodomain 1 (S178 to E291 residues) expressed in bacterial expression system by BROMOscan assay
HCC515 = test: Cytotoxicity against human HCC515 cells measured after 8 days; type: functional, cell-based; conditions: HCC515, 192 h
[5] = molecular target: Tyrosine-protein kinase JAK1 (Homo sapiens) (UniProt P23458); test: Inhibition of JAK1 (unknown origin) at 1 uM relative to control
SU-DHL-16 = test: Cytotoxicity against human SU-DHL-16 cells measured after 8 days; type: functional, cell-based; conditions: SU-DHL-16, 192 h
DB = test: Cytotoxicity against human DB cells measured after 8 days; type: functional, cell-based; conditions: 192 h
COLO 320 = test: Cytotoxicity against human COLO 320 cells measured after 8 days; type: functional, cell-based; conditions: COLO 320, 192 h
[6] = molecular target: SWI/SNF-related matrix-associated actin-dependent regulator of chromatin subfamily A member 4 (Homo sapiens, UniProt P51532); test: Binding affinity to human partial length SMARCA4 (A1448 to S1575 residues) expressed in bacterial expression system by BROMOscan assay
[7] = Cytotoxicity against human NCI-H2110 cells measured after 8 days; type: functional, cell-based; conditions: NCI-H2110, 192 h
HCC1937 = test: Cytotoxicity against human HCC1937 cells measured after 8 days; type: functional, cell-based; conditions: HCC1937, 192 h
RL = test: Cytotoxicity against human RL cells measured after 8 days; type: functional, cell-based; conditions: 192 h
EVSA-T = test: Cytotoxicity against human EVSA-T cells measured after 8 days; type: functional, cell-based; conditions: 192 h
[8] = molecular target: T2, Muscle, skeletal receptor tyrosine-protein kinase (Homo sapiens) (UniProt O15146); test: Inhibition of MuSK (unknown origin) at 1 uM relative to control
T2 sequence (whole entry): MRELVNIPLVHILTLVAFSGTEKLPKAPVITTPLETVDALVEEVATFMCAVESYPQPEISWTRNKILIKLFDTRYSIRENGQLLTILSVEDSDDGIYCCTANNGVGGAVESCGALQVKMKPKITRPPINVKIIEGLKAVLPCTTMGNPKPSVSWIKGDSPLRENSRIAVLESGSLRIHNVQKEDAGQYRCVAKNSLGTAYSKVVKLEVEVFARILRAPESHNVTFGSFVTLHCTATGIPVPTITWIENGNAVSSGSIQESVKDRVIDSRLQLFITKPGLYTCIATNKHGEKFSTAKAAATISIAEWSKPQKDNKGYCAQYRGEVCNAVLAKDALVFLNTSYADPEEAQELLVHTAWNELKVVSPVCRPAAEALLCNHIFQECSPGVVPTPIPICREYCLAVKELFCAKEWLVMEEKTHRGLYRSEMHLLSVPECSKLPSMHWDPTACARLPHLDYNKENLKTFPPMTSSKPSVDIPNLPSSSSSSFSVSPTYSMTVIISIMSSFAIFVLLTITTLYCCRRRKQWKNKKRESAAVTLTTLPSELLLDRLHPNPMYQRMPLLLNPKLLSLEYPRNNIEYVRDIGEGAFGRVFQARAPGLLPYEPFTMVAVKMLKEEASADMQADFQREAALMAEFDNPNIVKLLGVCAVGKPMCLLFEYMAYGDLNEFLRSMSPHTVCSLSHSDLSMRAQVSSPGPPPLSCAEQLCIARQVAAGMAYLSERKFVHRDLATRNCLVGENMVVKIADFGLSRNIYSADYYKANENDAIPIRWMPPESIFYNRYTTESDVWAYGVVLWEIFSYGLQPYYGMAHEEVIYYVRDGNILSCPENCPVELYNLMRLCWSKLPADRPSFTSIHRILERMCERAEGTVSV

NCI-H661 = test: Cytotoxicity against human NCI-H661 cells measured after 8 days; type: functional, cell-based; conditions: NCI-H661, 192 h
[9] = molecular target: Chromatin remodeling regulator CECR2 (Homo sapiens, UniProt Q9BXF3); test: Displacement of biotinylated small-molecule ligand from recombinant His-tagged CECR2 (unknown origin) measured after 10 mins by TR-FRET assay

Sequence of Protein polybromo-1 (Q86U86 whole entry, the tested form may be a part): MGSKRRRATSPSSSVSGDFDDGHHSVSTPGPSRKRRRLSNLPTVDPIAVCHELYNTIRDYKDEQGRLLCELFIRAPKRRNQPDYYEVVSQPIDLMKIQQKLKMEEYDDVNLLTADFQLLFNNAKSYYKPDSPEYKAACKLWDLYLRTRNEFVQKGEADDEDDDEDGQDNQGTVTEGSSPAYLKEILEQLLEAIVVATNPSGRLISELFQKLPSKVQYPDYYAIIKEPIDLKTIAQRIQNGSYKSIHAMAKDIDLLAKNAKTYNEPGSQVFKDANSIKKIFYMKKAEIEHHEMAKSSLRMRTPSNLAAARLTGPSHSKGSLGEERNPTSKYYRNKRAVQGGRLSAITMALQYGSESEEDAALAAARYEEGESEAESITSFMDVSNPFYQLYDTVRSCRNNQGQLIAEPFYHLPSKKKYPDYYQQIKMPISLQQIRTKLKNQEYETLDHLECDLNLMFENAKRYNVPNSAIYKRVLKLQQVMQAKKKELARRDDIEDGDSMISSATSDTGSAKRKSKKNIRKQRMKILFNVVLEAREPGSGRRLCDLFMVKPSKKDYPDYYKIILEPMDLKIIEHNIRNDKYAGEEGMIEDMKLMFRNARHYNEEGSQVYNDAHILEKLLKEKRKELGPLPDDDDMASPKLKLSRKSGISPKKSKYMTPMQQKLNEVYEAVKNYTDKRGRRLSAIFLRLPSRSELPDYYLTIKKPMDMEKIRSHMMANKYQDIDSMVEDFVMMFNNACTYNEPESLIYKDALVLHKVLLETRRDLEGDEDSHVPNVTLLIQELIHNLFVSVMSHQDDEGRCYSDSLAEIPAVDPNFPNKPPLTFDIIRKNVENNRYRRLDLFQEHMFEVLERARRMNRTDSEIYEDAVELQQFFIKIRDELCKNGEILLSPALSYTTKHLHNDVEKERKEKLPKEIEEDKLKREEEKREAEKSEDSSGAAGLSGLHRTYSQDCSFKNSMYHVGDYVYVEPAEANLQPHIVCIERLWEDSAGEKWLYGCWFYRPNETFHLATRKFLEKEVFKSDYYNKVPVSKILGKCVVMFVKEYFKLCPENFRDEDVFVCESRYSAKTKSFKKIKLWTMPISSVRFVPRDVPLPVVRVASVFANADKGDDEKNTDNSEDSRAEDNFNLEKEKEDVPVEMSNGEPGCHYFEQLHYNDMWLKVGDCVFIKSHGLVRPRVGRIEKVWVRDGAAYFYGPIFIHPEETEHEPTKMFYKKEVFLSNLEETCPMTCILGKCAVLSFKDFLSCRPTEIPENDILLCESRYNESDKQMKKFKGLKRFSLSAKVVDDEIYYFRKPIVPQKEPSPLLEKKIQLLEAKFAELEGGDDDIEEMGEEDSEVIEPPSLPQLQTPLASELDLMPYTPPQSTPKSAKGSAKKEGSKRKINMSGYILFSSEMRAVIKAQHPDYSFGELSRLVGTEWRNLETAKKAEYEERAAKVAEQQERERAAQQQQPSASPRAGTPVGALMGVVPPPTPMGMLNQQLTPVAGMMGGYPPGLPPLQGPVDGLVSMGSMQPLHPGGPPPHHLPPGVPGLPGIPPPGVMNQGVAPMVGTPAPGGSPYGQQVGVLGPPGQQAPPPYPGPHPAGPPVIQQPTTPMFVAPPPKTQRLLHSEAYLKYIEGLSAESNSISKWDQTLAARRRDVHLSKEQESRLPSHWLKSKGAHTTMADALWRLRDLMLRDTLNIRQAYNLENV
Sequence of Tyrosine-protein kinase JAK1 (Homo sapiens) (P23458 whole entry): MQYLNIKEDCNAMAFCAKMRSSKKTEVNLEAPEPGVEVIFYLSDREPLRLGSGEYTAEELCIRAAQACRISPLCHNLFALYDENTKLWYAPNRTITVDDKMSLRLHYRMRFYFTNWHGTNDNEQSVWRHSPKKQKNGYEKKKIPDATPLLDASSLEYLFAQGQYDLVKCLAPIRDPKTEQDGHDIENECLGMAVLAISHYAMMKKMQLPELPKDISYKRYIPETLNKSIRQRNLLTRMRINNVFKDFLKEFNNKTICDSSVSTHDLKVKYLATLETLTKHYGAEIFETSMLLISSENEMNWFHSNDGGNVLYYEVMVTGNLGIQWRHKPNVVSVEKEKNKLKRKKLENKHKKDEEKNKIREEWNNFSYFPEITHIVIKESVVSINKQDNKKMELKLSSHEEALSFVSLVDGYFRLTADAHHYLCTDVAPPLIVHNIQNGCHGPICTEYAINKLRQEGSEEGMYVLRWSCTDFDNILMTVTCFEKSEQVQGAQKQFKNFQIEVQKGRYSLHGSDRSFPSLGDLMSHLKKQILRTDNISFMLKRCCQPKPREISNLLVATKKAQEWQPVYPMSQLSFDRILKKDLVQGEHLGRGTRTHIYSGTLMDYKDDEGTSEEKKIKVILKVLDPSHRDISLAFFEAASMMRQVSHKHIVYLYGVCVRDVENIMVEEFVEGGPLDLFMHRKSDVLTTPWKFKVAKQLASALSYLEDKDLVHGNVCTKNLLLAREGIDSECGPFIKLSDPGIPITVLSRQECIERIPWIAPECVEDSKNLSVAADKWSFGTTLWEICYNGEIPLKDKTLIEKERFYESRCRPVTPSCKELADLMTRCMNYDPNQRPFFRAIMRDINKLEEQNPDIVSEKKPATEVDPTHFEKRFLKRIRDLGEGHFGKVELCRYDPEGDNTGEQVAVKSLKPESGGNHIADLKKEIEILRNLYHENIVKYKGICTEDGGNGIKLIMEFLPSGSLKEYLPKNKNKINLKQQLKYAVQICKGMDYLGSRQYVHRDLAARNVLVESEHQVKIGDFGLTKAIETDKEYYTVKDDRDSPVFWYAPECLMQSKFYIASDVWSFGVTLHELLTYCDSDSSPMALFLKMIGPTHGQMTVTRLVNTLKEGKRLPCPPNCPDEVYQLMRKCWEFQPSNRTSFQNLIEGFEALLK
Sequence of SWI/SNF-related matrix-associated actin-dependent regulator of chromatin subfamily A member 4 (P51532 whole entry, the tested form may be a part): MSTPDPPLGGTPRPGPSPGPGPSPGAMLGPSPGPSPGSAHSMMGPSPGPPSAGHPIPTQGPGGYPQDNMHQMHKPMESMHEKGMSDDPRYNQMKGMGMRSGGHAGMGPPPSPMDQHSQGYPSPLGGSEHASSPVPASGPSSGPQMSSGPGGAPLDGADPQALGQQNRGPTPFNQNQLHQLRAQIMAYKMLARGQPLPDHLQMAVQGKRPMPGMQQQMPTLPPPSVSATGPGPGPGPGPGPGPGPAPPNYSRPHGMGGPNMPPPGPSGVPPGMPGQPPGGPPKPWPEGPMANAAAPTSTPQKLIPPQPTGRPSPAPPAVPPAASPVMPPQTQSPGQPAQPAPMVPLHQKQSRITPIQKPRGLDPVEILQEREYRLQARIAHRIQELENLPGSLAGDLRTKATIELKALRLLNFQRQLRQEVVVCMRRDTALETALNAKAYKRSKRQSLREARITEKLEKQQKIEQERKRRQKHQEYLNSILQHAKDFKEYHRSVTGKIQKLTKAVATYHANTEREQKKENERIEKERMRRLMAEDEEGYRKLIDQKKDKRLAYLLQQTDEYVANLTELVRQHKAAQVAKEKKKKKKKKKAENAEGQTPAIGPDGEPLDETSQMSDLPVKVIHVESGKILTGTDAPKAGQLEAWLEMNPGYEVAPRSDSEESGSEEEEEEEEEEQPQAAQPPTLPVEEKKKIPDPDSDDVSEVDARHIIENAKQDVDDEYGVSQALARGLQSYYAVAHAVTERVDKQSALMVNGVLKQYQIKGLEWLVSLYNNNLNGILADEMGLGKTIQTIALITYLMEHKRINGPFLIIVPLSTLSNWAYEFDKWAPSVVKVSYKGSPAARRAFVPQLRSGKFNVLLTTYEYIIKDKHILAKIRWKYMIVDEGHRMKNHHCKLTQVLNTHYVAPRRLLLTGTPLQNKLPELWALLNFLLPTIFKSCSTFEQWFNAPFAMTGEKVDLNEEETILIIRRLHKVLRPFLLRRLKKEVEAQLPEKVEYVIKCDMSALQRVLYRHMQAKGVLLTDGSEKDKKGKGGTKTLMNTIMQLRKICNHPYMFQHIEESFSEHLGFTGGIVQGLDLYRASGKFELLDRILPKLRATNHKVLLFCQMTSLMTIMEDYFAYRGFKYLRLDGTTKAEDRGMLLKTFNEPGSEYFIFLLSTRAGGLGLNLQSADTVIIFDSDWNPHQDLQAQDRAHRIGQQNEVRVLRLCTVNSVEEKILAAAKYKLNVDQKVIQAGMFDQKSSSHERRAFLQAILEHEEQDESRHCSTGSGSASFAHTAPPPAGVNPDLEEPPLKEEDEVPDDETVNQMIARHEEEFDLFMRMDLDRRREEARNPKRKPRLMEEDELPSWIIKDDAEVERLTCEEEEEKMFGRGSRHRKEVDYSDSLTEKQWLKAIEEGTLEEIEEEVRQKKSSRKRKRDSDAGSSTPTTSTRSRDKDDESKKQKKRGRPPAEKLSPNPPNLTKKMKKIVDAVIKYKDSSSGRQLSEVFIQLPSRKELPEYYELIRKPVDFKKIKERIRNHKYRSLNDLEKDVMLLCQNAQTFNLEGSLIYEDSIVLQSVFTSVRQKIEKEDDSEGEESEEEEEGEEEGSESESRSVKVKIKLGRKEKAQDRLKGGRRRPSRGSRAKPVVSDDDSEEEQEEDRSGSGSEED

| Structure (SMILES) | IC50 (NCI-H1703) [µM] | IC50 (CA46) [µM] | IC50 [1] [µM] | IC50 [2] [µM] | IC50 (NCI-H2009) [µM] | IC50 (SU-DHL-1) [µM] | IC50 [3] [µM] | IC50 (LNCaP) [µM] | Activity [4] [%] | IC50 (MV4-11) [µM] | IC50 (NCI-H226) [µM] | Kd (Protein polybromo-1) [µM] | IC50 (HCC515) [µM] | inhibition [5] [%] | IC50 (SU-DHL-16) [µM] | IC50 (DB) [µM] | IC50 (COLO 320) [µM] | Kd [6] [µM] | IC50 [7] [µM] | IC50 [9] [µM] | further results |
| --- | --- | --- | --- | --- | --- | --- | --- | --- | --- | --- | --- | --- | --- | --- | --- | --- | --- | --- | --- | --- | --- |
| C/C=C/Cn1cc(-c2ccc(C(C)(C)O)cc2OC)c2cc[nH]c2c1=O | 20 | 9.85 | 20 | 20 | 20 | 20 | 20 | 19.9 | 11 | 8.02 | 20 | 7.6 | 20 | -2.5 | 13.9 | 16.9 | 20 | > 10 | 20 | > 20 | IC50 (HCC1937): 20 µM; IC50 (RL): 14.8 µM; IC50 (EVSA-T): 20 µM; inhibition [8]: 1.5%; IC50 (NCI-H661): 20 µM |
| C/C=C/Cn1cc(-c2cc(OC)c(C(C)(C)O)cc2OC)c2cc(C)[nH]c2c1=O | – | – | – | – | – | – | – | – | – | – | – | > 10 | – | – | – | – | – | > 10 | – | 4.3 | – |
| C/C=C/Cn1cc(-c2ccc(C(=O)N3CCOCC3)cc2)c2cc[nH]c2c1=O | 20 | 20 | 20 | 20 | 20 | 20 | 20 | 16.5 | 7 | 6.86 | 20 | > 10 | 20 | -3.9 | 10.3 | 20 | 20 | 28 | 20 | 2.9 | IC50 (HCC1937): 20 µM; IC50 (RL): 16.6 µM; IC50 (EVSA-T): 20 µM; inhibition [8]: -2.4%; IC50 (NCI-H661): 20 µM |
| C/C=C/Cn1cc(-c2cc(OC)c(C(=O)N3CCOCC3)cc2OC)c2cc(C)[nH]c2c1=O | 2 | 2 | 2 | 2 | 2 | 2 | 2 | 2 | 6 | 2 | 2 | > 10 | 2 | -4.5 | 2 | 2 | 2 | > 10 | 2 | 2.4 | IC50 (HCC1937): 2 µM; IC50 (RL): 2 µM; IC50 (EVSA-T): 2 µM; inhibition [8]: 3%; IC50 (NCI-H661): 2 µM |
